This is an account of results in patent publication US20130071897A1, “METHOD FOR CONTROLLING UNDESIRABLE BYPRODUCTS FORMATION CAUSED BY CONTAMINATING ORGANISMS IN THE PRODUCTION OF ETHANOL FROM SYNGAS” (COSKATA, INC., priority 2011, published 2013).

In one assay the test system is acyl-CoA dehydrogenases. Nature of the assay: In vitro acyl-CoA dehydrogenase ferrocenium assay with C. tyrobutyricum cell-free extract. The following applies: 0.5 to 10 mM compound; rate of ferrocenium reduction at 300 nm. Format: biochemical. As for the experimental part: Lehman, et al., in An Acyl-Coenzyme A Dehydrogenase Assay Utilizing the Ferricenium Ion, Analytical Biochemistry 186, pages 280-284 (1990), disclose an in vitro assay screening technique for acyl-CoA dehydrogenases for determining enzyme deficiencies in children. An adaptation of this technique was explored as a potential screening method for ascertaining potential butyrogen inhibitors. An aqueous assay liquor is prepared such that each 1 milliliter sample contains 50 mM of TrisHCl buffer (pH 7.6); 0.05 mM of butyryl-CoA; 5 micromoles of FAD (flavin adenine dinucleotide) and 0.4 mM of ferrocenium. Whole cells of C. tyrobutyricum are lysed and are added to the assay liquor. […] The abbreviation mM stands for millimolar. To assure metabolic consistency among the samples a master batch of C. tyrobutyricum is prepared and harvested at the early log growth stage (approximate O.D. of between about 0.5 and 0.7). The master batch fermentation broth is centrifuged and rinsed with 50 mM TrisHCl buffer (pH 7.6), centrifuged and reconstituted with 50 mM TrisHCl buffer (pH 7.6) to be 10 times more concentrated than the original master batch. Aliquots of about 0.5 milliliter are placed into cryogenic vials (about 1.8 milliliter capacity) and frozen at −80° C. until needed. When needed, a vial is placed in an anoxic Coy chamber and allowed to thaw to room temperature. Once thawed, the cells are added to a 15 mL centrifuge tube and diluted with 0.5 mL of a 2 mg/mL solution of lysozyme (purchased from Aldrich) in 50 mM Tris-HCl (final concentration of lysozyme is about 1 mg/mL). The centrifuge tube is inverted 5 times, removed from the Coy chamber and allowed to incubate at 37° C. for 30 minutes. […] The centrifuge tube is vortexed in the Coy chamber for about 30 seconds, removed from the chamber and centrifuged for 15 minutes at 4000 rpm and 4° C. The tube is returned to the chamber and the cell-free extract (supernatant) is used to prepare the above described samples. The samples are analyzed at various times by absorbance spectroscopy at 300 nm using a Thermo Scientific Evolution 300 UV/Vis spectrophotometer with a 7-cuvette carousel and Starna quartz cuvettes with a septum cap to determine the amount of reduction of ferrocenium. The sample is at laboratory temperature and is maintained under anaerobic conditions. Typically, the absorbance is measured over a period of about 10 to 20 minutes which is sufficient time for the absorbance to stop changing. A linear slope of the rate of change in absorbance during the period that the absorbance is changing is determined using Microsoft Excel® 2010 linear regression to generate a straight line from the data points. The more gradual the slope, the better inhibition because the enzyme is slower at reducing the ferrocenium in the assay sample. A dose-response curve is then determined for each compound by plotting the linear slope against the respective compound concentration. A linear slope is then determined for each compound using Microsoft Excel® 2010 linear regression to generate a straight line from the data points. The steeper the dose-response slope, the better the inhibition because the increased concentration of the compound causes more of a difference in enzyme activity. The dose-response slope generally has a broad standard of deviation due to experimental imprecision and slope determinations.

Assay [1] has as its system C. autoethanogenum. The assay is described as follows: Balch tube batch growth of homoacetogen C. autoethanogenum on fructose, optical density. Format: cell-based. The note with it: added 21 h after inoculation. As for the experimental part: These compounds were first tested to determine their effect on a known homoacetogen. Each compound was tested in a series of batch experiments to determine the growth response of a homoacetogen to the presence of the compound at varying concentrations. The batch experiments were all conducted by anoxically filling a Balch tube with 5 ml of a fermentation medium having the composition given in Tables 2 and 3. To expedite results, these batch experiments used fructose as the growth nutrient source for bacteria. Thus, the media included a 5 g/L of fructose.
Each tube was inoculated with 0.5 ml of the same strain of C. autoethanogenum bacteria seed culture inoculum. The tubes were maintained at a temperature of 37° C. Twenty one hours after the inoculation of the tube with the bacteria, the different crotonate derivatives from Table 1 were added to different tubes in the amounts indicated in Table 4 This was at a time of early to mid-log phase growth for the bacteria. Each fermentation of the bacteria in the media at the different concentration of crotonate derivatives were allowed to progress and were monitored to determine the bacteria growth at selected intervals of time varying from approximately 20 hours to 190 hours. Growth at the intervals was measured by reading the optical density (OD) of the fermentation liquid. Optical density was measured using a Spectronic Spec 20 (Thermo Spectronic) at a wavelength of 600 nm. The OD of the Balch tube culture was measured directly in the tube using absorbance mode on the Spec 20 machine. The machine was set to zero absorbance by first measuring and adjusting the setting to zero absorbance using media only as a blank. This process was repeated at each indicated time point throughout the experiment. The ability of a tube fermentation at a particular concentration of crotonate derivative to reach a predetermined optical density was recorded in Table 4. Table 4 indicates the presence of bacterial growth to an OD of approximately 2 or above with a “+”, and to an optical density in a range of 0.5 to 1.5 as a “+/−”, and indicates the failure of bacterial growth to reach an optical density of approximately 0.5 as a “−”.

Assay [2] deals with C. autoethanogenum. The assay is described as follows: Toxicity to C. autoethanogenum by batch fermentation using syngas substrate, optical density. In kind it is cell-based, Clostridium autoethanogenum. The note with it: for O.D. Response of Various Inhibitors on C. autoethanogenum: Table 21, one value per compound; for O.D. Response to Various Inhibitors: duplicates A and B, amount not given. As to the method:
In this example various crotonate-like compounds on are evaluated for toxicity to C. autoethanogenum by batch fermentation using syngas substrate. The batch fermentations are conducted by anoxically filling 100 mL serum bottles with 10 mL of media having the composition given in Tables 12 and 13. Duplicate runs are conducted for each concentration. The compounds are: • C-1 Ethyl 4,4,4-trifluoro-3-(trifluoromethyl)crotonate • C-4 4,4,4-Trifluorocrotonamide • C-9 Ethyl 4,4,4-Trifluoro-3-(amino)crotonate • C-18 3 trifluoromethyl-4-methoxybenzoate.
Each bottle is inoculated with 1.0 mL of seed culture inoculum from an active fermenter using syngas substrate and containing Clostridium autoethanogenum, which inoculum has an OD of about 4.92 (which upon a 10 times dilution provides a starting OD for the fermentation of about 0.49). The bottles are gased with syngas to about 100 kilopascals and maintained at a temperature of 37° C. The bottles are regassed with syngas every 8 to 12 hours. The syngas has the approximate composition set forth in Examples 6 to 10. Twenty four hours after inoculation of the bottles with the bacteria, the compounds are added to different bottles as a solution in 50 μL of N-methylpyrrolidone in the amounts indicated in Tables 20 and 21. The fermentation process is allowed to progress at 37° C. At selected intervals of time, bacterial growth is measured by reading the OD of the fermentation liquid using a Thermo Spectronic Genesys 20 spectrophotometer. Optical density is measured by anoxically removing an aliquot of fermentation liquid and adding it to a disposable cuvette. OD's ranging between 0.01 and 0.4 are measured using fermentation liquid directly, while OD's greater than 0.4 are measure after performing a 1/10 dilution with water.

The test system of assay [3] is Clostridium tyrobutyricum. Nature of the assay: Balch tube batch growth of strict butyrogen Clostridium tyrobutyricum on fructose, optical density. The following applies: added 21 h after inoculation. In kind it is cell-based. As for the experimental part:
Similar experiments were conducted to make a preliminary determination as to which of the crotonate and crotonate-like compounds would act as butyrogen retardants. For this purpose the selected compounds were tested again in a series of batch experiments to determine the growth response of butyrogens to the presence of the compound at varying concentrations. The batch experiments were all conducted by anoxically filling a 20 ml Balch tube with 5 ml of a fermentation medium having the composition given in Tables 2 and 3. The media included 0.5 v/v final concentration of a fructose substrate. For each of the crotonate concentrations tested, duplicate test tubes were prepared.
Each tube was inoculated with 0.5 ml seed culture inoculum of the strict butyrogen Clostridium tyrobutyricum. The tubes were maintained at a temperature of 37° C. Twenty one hours after the inoculation of the tube with the bacteria, the different compounds from Table 1 were added to different tubes in the amounts indicated in Table 6. This was at a time of early to mid-log phase growth for the bacteria. Each fermentation of the bacteria in the media at the different concentration of crotonate derivatives were allowed to progress and were monitored to determine the bacteria growth at selected intervals of time varying from approximately 20 hours to 54 hours. Growth at the intervals was measured by reading the optical density (OD) of the fermentation liquid. Optical density was measured as described in Example 1. The ability of a tube fermentation at a particular concentration of crotonate derivative to reach a predetermined optical density was recorded in Table 6. Table 6 indicates the presence of bacterial growth to an OD of approximately 1.8 or above with a “+”, and to an optical density in a range of 0.7 to 1.5 as a “+/−”, and indicates the failure of bacterial growth to reach an optical density of approximately 0.7 as a “−”.

The mark [4] stands for this setting: 0 Hours, added 24 h after inoculation.
[5] abbreviates: 2.5 Hours, added 24 h after inoculation.
The mark [6] stands for this setting: 6.5 Hours, added 24 h after inoculation.
[7] abbreviates: 24.5 Hours, added 24 h after inoculation.

For the compound `O=C(O)c1cccc(C(F)(F)F)c1` [3-(Trifluoromethyl)benzoate], in the assay with acyl-CoA dehydrogenases, the “Dose-Response Slope” value is recorded as 6.
Take `CCOC(=O)/C=C(/C)N` [H, ethyl 3-aminocrotonate]: the “Optical density valuation of C. autoethanogenum” value in the assay with C. autoethanogenum [1] (10 ppm(m)), with C. autoethanogenum [1] (100 ppm(m)), in the assay on C. autoethanogenum [1] (500 ppm(m)), in the assay on C. autoethanogenum [1] (1000 ppm(m)), in the assay on C. autoethanogenum [1] (5000 ppm(m)) and with C. autoethanogenum [1] (10000 ppm(m)) was “+ (bacterial growth to an OD of approximately 2 or above)” in each case.
For `CCOC(=O)c1ccccc1C(F)(F)F` [Ethyl 2-(trifluoromethyl)benzoate], the “Dose-Response Slope” value in the assay with acyl-CoA dehydrogenases is reported as 8.
`COc1ccc(C(N)=O)cc1C(F)(F)F` [3-Trifluoromethyl-4-methoxybenzamide]: the “Dose-Response Slope” value in the assay on acyl-CoA dehydrogenases came out at 12.
As for “3 trifluoromethyl-4-methoxybenzoate [Compound C-18]”, the “O.D. Response of Various Inhibitors on C. autoethanogenum” value in the assay on C. autoethanogenum [2] (setting [4]) is 0.49; in the assay with C. autoethanogenum [2] (setting [5]) it was 0.44; in the assay with C. autoethanogenum [2] (setting [6]), 0.44; in the assay on C. autoethanogenum [2] (setting [7]), 1.16; with C. autoethanogenum [2] (30.5 Hours) it was 1.30; in the assay with C. autoethanogenum [2] (47.5 Hours) it was 1.74. In the assay on C. autoethanogenum [2] (56 Hours), the “O.D. Response of Various Inhibitors on C. autoethanogenum” value stood at 1.88. The “O.D. Response to Various Inhibitors” value with C. autoethanogenum [2] (setting [4]) was 0.49; with C. autoethanogenum [2] (setting [5]), 0.47; in the assay on C. autoethanogenum [2] (2.5 Hours, added 24 h after inoculation, listed as C-19), 0.41; in the assay on C. autoethanogenum [2] (setting [6]), 0.44; in the assay on C. autoethanogenum [2] (setting [7]), 1.15; with C. autoethanogenum [2] (24.5 Hours, added 24 h after inoculation, listed as C-19) it was 1.18. For the same compound, the “O.D. Response to Various Inhibitors” value worked out at 1.32 in the assay with C. autoethanogenum [2] (30.5 Hours, added 24 h after inoculation); 1.28 in the assay with C. autoethanogenum [2] (30.5 Hours, added 24 h after inoculation, listed as C-19); 1.73 with C. autoethanogenum [2] (47.5 Hours, added 24 h after inoculation); 1.75 in the assay on C. autoethanogenum [2] (47.5 Hours, added 24 h after inoculation, listed as C-19).
With `NC(=O)c1ccc(F)c(C(F)(F)F)c1` [3-Trifluoromethyl-4-fluorobenzamide], the “Dose-Response Slope” value in the assay with acyl-CoA dehydrogenases came to 5.
With `O=C(O)/C=C/C(F)(F)F` [G, 4,4,4-trifluorocrotonic acid], the “Optical density valuation of C. autoethanogenum” value with C. autoethanogenum [1] (10 ppm(m)) is “+ (bacterial growth to an OD of approximately 2 or above)”; in the assay on C. autoethanogenum [1] (100 ppm(m)), “+ (bacterial growth to an OD of approximately 2 or above)”; in the assay with C. autoethanogenum [1] (500 ppm(m)), “+ (bacterial growth to an OD of approximately 2 or above)”; in the assay with C. autoethanogenum [1] (1000 ppm(m)), “+/− (to an optical density in a range of 0.5 to 1.5)”; with C. autoethanogenum [1] (5000 ppm(m)), “− (failure of bacterial growth to reach an optical density of approximately 0.5)”; in the assay with C. autoethanogenum [1] (10000 ppm(m)), “− (failure of bacterial growth to reach an optical density of approximately 0.5)”. Further, the “Optical density valuation of C. tyrobutyricum” value in assay [3] (100 ppm(m)), in assay [3] (500 ppm(m)) and in assay [3] (1000 ppm(m)) was “+ (bacterial growth to an OD of approximately 1.8 or above)” throughout.
